Our source for the IC50 values is patent US11793823B2, “Compounds and pharmaceutical uses thereof” (SyneuRx International (Taiwan) Corp., priority 2020, dated 2023).

Chain of human D-amino acid oxidase (hDAAO) (P14920 whole entry): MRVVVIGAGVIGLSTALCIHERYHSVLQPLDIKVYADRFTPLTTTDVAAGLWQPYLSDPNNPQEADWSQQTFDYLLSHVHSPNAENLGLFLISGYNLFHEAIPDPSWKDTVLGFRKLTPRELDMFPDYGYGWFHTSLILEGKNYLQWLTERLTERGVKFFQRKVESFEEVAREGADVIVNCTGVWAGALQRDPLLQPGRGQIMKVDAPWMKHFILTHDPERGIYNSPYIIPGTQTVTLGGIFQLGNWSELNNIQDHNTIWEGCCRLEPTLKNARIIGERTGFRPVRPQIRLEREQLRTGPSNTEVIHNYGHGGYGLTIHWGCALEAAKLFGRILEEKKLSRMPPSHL

This test addresses human D-amino acid oxidase (hDAAO) (Homo sapiens (Human), UniProt P14920). Briefly: In vitro human D-amino acid oxidase (hDAAO) activity, D-Serine/Amplex Red fluorescence. Format: biochemical. The settings on record: D-Serine substrate, 20 min. As to the method: The hDAAO inhibitory activities were measured by using D-Serine as a substrate to produce H2O2. The produced H2O2 would be oxidized by peroxidase, and the produced free radicals would further react with Amplex Red reagent to emit fluorescence. The intensity of fluorescence at 590 nm would be measured to represent the activity of hDAAO. All compounds were dissolved in DMSO. Each compound was diluted with DMSO in 3-fold serial dilution to create a dose response curve. Each sample was added in triplicate, 1 µL/well, into 96-well black plates. Positive control wells were added with 1 μL of DMSO. Then 49 μL of assay buffer (100 mM Tris-HCl, pH 8.5) containing 1.2 ng/mL hDAAO, 900 nM FAD, 0.2 units/mL HRP, and 100 μM Amplex Red was added to each well of the plate using a multichannel pipette. Next, 50 μL of 100 mM D-Serine in assay buffer was added. The reaction plates were then incubated in the dark at room temperature. The fluorescence readout was detected at 0 and 20 mins by Molecular Device Gemini EM fluorescence reader using the following settings: excitation filter 530 nm, and emission filter 590 nm. The percentage of inhibition values for each well was calculated with the following equation: The percentage of inhibition=(fluorescence sample, 20 min−fluorescence sample, 0 min)/(fluorescence DMSO, 20 min−fluorescence DMSO, 0 min)×100%
The nonlinear curve fitting model in GraphPad Prism was used to calculate IC50 value for each compound.
As for `O=C(Oc1cc(C(=O)Oc2cc(C(=O)Oc3cc(C(=O)Oc4cc(C(=O)O[C@H]5OC[C@@H](OC(=O)c6cc(O)c(O)c(OC(=O)c7cc(O)c(O)c(OC(=O)c8cc(O)c(O)c(OC(=O)c9cc(O)c(O)c(OC(=O)c%10cc(O)c(O)c(O)c%10)c9)c8)c7)c6)[C@H](OC(=O)c6cc(O)c(O)c(OC(=O)c7cc(O)c(O)c(OC(=O)c8cc(O)c(O)c(OC(=O)c9cc(O)c(O)c(OC(=O)c%10cc(O)c(O)c(O)c%10)c9)c8)c7)c6)[C@H]5OC(=O)c5cc(O)c(O)c(OC(=O)c6cc(O)c(O)c(OC(=O)c7cc(O)c(O)c(OC(=O)c8cc(O)c(O)c(OC(=O)c9cc(O)c(O)c(O)c9)c8)c7)c6)c5)cc(O)c4O)cc(O)c3O)cc(O)c2O)cc(O)c1O)c1cc(O)c(O)c(O)c1` [Compound 123, (2R,3R,4S,5R)-tetrahydro-2H-pyran-2,3,4,5-tetrayl tetrakis(3-((3-((3-((3,4-dihydroxy-5-((3,4,5-trihydroxybenzoyl)oxy)benzoyl)oxy)-4,5-dihydroxybenzoyl)oxy)-4,5-dihydroxybenzoyl)oxy)-4,5-dihydroxybenzoate)], the IC50 was 2.4 nM.

With `O=C(Oc1cc(C(=O)Oc2cc(C(=O)O[C@@H]3OC[C@@H](OC(=O)c4cc(O)c(O)c(OC(=O)c5cc(O)c(O)c(OC(=O)c6cc(O)c(O)c(O)c6)c5)c4)[C@H](OC(=O)c4cc(O)c(O)c(OC(=O)c5cc(O)c(O)c(OC(=O)c6cc(O)c(O)c(O)c6)c5)c4)[C@H]3OC(=O)c3cc(O)c(O)c(OC(=O)c4cc(O)c(O)c(OC(=O)c5cc(O)c(O)c(O)c5)c4)c3)cc(O)c2O)cc(O)c1O)c1cc(O)c(O)c(O)c1` [Compound 126, (2S,3R,4S,5R)-tetrahydro-2H-pyran-2,3,4,5-tetrayl tetrakis(3-((3,4-dihydroxy-5-((3,4,5-trihydroxybenzoyl)oxy)benzoyl)oxy)-4,5-dihydroxybenzoate)], the concentration for half-maximal inhibition (IC50) came out at 3.6 nM.

`O=C(Oc1cc(C(=O)Oc2cc(C(=O)Oc3cc(C(=O)O[C@@H]4OC[C@@H](OC(=O)c5cc(O)c(O)c(OC(=O)c6cc(O)c(O)c(OC(=O)c7cc(O)c(O)c(OC(=O)c8cc(O)c(O)c(O)c8)c7)c6)c5)[C@H](OC(=O)c5cc(O)c(O)c(OC(=O)c6cc(O)c(O)c(OC(=O)c7cc(O)c(O)c(OC(=O)c8cc(O)c(O)c(O)c8)c7)c6)c5)[C@H]4OC(=O)c4cc(O)c(O)c(OC(=O)c5cc(O)c(O)c(OC(=O)c6cc(O)c(O)c(OC(=O)c7cc(O)c(O)c(O)c7)c6)c5)c4)cc(O)c3O)cc(O)c2O)cc(O)c1O)c1cc(O)c(O)c(O)c1` [Compound 128, (2S,3R,4S,5R)-tetrahydro-2H-pyran-2,3,4,5-tetrayl tetrakis(3-((3-((3,4-dihydroxy-5-((3,4,5-trihydroxybenzoyl)oxy)benzoyl)oxy)-4,5-dihydroxybenzoyl)oxy)-4,5-dihydroxybenzoate)] registered a half-maximal inhibitory concentration (IC50) of 3.3 nM.

With `O=C(OC[C@H]1O[C@H](OC(=O)c2cc(O)c(O)c(OC(=O)c3cc(O)c(O)c(O)c3)c2)[C@H](OC(=O)c2cc(O)c(O)c(OC(=O)c3cc(O)c(O)c(O)c3)c2)[C@@H]1OC(=O)c1cc(O)c(O)c(OC(=O)c2cc(O)c(O)c(O)c2)c1)c1cc(O)c(O)c(OC(=O)c2cc(O)c(O)c(O)c2)c1` [Compound 134, (2R,3R,4R,5R)-5-(((3,4-dihydroxy-5-((3,4,5-trihydroxybenzoyl)oxy)benzoyl)oxy)methyl)tetrahydrofuran-2,3,4-triyl tris(3,4-dihydroxy-5-((3,4,5-trihydroxybenzoyl)oxy)benzoate)], the IC50 came out at 8 nM.

Turning to `O=C(OC[C@H]1O[C@H](OC(=O)c2cc(O)c(O)c(OC(=O)c3cc(O)c(O)c(OC(=O)c4cc(O)c(O)c(O)c4)c3)c2)[C@H](OC(=O)c2cc(O)c(O)c(OC(=O)c3cc(O)c(O)c(OC(=O)c4cc(O)c(O)c(O)c4)c3)c2)[C@@H]1OC(=O)c1cc(O)c(O)c(OC(=O)c2cc(O)c(O)c(OC(=O)c3cc(O)c(O)c(O)c3)c2)c1)c1cc(O)c(O)c(OC(=O)c2cc(O)c(O)c(OC(=O)c3cc(O)c(O)c(O)c3)c2)c1` [Compound 136, (2R,3R,4R,5R)-5-(((3-((3,4-dihydroxy-5-((3,4,5-trihydroxybenzoyl)oxy)benzoyl)oxy)-4,5-dihydroxybenzoyl)oxy)methyl)tetrahydrofuran-2,3,4-triyl tris(3-((3,4-dihydroxy-5-((3,4,5-trihydroxybenzoyl)oxy)benzoyl)oxy)-4,5-dihydroxybenzoate)], 6 nM corresponded to half-maximal inhibition (IC50).

With `O=C(OC[C@H]1O[C@H](OC(=O)c2cc(O)c(O)c(OC(=O)c3cc(O)c(O)c(OC(=O)c4cc(O)c(O)c(OC(=O)c5cc(O)c(O)c(OC(=O)c6cc(O)c(O)c(O)c6)c5)c4)c3)c2)[C@H](OC(=O)c2cc(O)c(O)c(OC(=O)c3cc(O)c(O)c(OC(=O)c4cc(O)c(O)c(OC(=O)c5cc(O)c(O)c(OC(=O)c6cc(O)c(O)c(O)c6)c5)c4)c3)c2)[C@@H]1OC(=O)c1cc(O)c(O)c(OC(=O)c2cc(O)c(O)c(OC(=O)c3cc(O)c(O)c(OC(=O)c4cc(O)c(O)c(OC(=O)c5cc(O)c(O)c(O)c5)c4)c3)c2)c1)c1cc(O)c(O)c(OC(=O)c2cc(O)c(O)c(OC(=O)c3cc(O)c(O)c(OC(=O)c4cc(O)c(O)c(OC(=O)c5cc(O)c(O)c(O)c5)c4)c3)c2)c1` [Compound 140, (2R,3R,4R,5R)-5-(((3-((3-((3-((3,4-dihydroxy-5-((3,4,5-trihydroxybenzoyl)oxy)benzoyl)oxy)-4,5-dihydroxybenzoyl)oxy)-4,5-dihydroxybenzoyl)oxy)-4,5-dihydroxybenzoyl)oxy)methyl)tetrahydrofuran-2,3,4-triyl tris(3-((3-((3-((3,4-dihydroxy-5-((3,4,5-trihydroxybenzoyl)oxy)benzoyl)oxy)-4,5-dihydroxybenzoyl)oxy)-4,5-dihydroxybenzoyl)oxy)-4,5-dihydroxybenzoate)], the 50% inhibitory concentration (IC50) turned out to be 3 nM.

For the compound `O=C(OC[C@H]1O[C@@H](OC(=O)c2cc(O)c(O)c(OC(=O)c3cc(O)c(O)c(O)c3)c2)[C@H](OC(=O)c2cc(O)c(O)c(OC(=O)c3cc(O)c(O)c(O)c3)c2)[C@@H]1OC(=O)c1cc(O)c(O)c(OC(=O)c2cc(O)c(O)c(O)c2)c1)c1cc(O)c(O)c(OC(=O)c2cc(O)c(O)c(O)c2)c1` [Compound 142, (2S,3R,4R,5R)-5-(((3,4-dihydroxy-5-((3,4,5-trihydroxybenzoyl)oxy)benzoyl)oxy)methyl)tetrahydrofuran-2,3,4-triyl tris(3,4-dihydroxy-5-((3,4,5-trihydroxybenzoyl)oxy)benzoate)], the half-inhibitory concentration (IC50) was 19 nM.

In turn, `O=C(OC[C@H]1O[C@@H](OC(=O)c2cc(O)c(O)c(OC(=O)c3cc(O)c(O)c(OC(=O)c4cc(O)c(O)c(O)c4)c3)c2)[C@H](OC(=O)c2cc(O)c(O)c(OC(=O)c3cc(O)c(O)c(OC(=O)c4cc(O)c(O)c(O)c4)c3)c2)[C@@H]1OC(=O)c1cc(O)c(O)c(OC(=O)c2cc(O)c(O)c(OC(=O)c3cc(O)c(O)c(O)c3)c2)c1)c1cc(O)c(O)c(OC(=O)c2cc(O)c(O)c(OC(=O)c3cc(O)c(O)c(O)c3)c2)c1` [Compound 144, (2S,3R,4R,5R)-5-(((3-((3,4-dihydroxy-5-((3,4,5-trihydroxybenzoyl)oxy)benzoyl)oxy)-4,5-dihydroxybenzoyl)oxy)methyl)tetrahydrofuran-2,3,4-triyl tris(3-((3,4-dihydroxy-5-((3,4,5-trihydroxybenzoyl)oxy)benzoyl)oxy)-4,5-dihydroxybenzoate)] showed an IC50 of 8 nM.

For `O=C(OC[C@H]1O[C@@H](OC(=O)c2cc(O)c(O)c(OC(=O)c3cc(O)c(O)c(OC(=O)c4cc(O)c(O)c(OC(=O)c5cc(O)c(O)c(O)c5)c4)c3)c2)[C@H](OC(=O)c2cc(O)c(O)c(OC(=O)c3cc(O)c(O)c(OC(=O)c4cc(O)c(O)c(OC(=O)c5cc(O)c(O)c(O)c5)c4)c3)c2)[C@@H]1OC(=O)c1cc(O)c(O)c(OC(=O)c2cc(O)c(O)c(OC(=O)c3cc(O)c(O)c(OC(=O)c4cc(O)c(O)c(O)c4)c3)c2)c1)c1cc(O)c(O)c(OC(=O)c2cc(O)c(O)c(OC(=O)c3cc(O)c(O)c(OC(=O)c4cc(O)c(O)c(O)c4)c3)c2)c1` [Compound 146, (2S,3R,4R,5R)-5-(((3-((3-((3,4-dihydroxy-5-((3,4,5-trihydroxybenzoyl)oxy)benzoyl)oxy)-4,5-dihydroxybenzoyl)oxy)-4,5-dihydroxybenzoyl)oxy)methyl)tetrahydrofuran-2,3,4-triyl tris(3-((3-((3,4-dihydroxy-5-((3,4,5-trihydroxybenzoyl)oxy)benzoyl)oxy)-4,5-dihydroxybenzoyl)oxy)-4,5-dihydroxybenzoate)], the IC50 stood at 4 nM.
